Results from PMC10905675, “INX-315, a Selective CDK2 Inhibitor, Induces Cell Cycle Arrest and Senescence in Solid Tumors” (Cancer Discovery, 2023).

Tests used:
PIK3CG (p110 gamma) = molecular target: T1, PIK3CG (p110 gamma) (Homo sapiens, UniProt P48736); assay: SelectScreen Adapta; format: biochemical; settings: INX-0315 at 100nM
T1 construct: purchased Thermo Fisher Scientific SelectScreen (plus Nanosyn / Reaction Biology for CDK/cyclin lines)
Description: (§1) INX-315 was first evaluated in the SelectScreen Biochemical Kinase Profiling at Thermo Fisher Scientific (Madison, WI). The primary screen consisted of INX-315 dosed at a single concentration of 100 nmol/L in 1% DMSO across each platform within the SelectScreen array of assays, LanthaScreen Eu Kinase Binding Assay; AdaptaScreen; and Z'LyteScreen using preestablished conditions at Thermo Fisher Scientific as shown in Supplementary Table S2. […] The follow-up screen consisted of 10-point dose–response curves for INX-315 from 1 µmol/L to 0.0495 nmol/L.

PIK3C3 (hVPS34) = molecular target: T2, PIK3C3 (hVPS34) (Homo sapiens, UniProt Q8NEB9); assay: SelectScreen Adapta; format: biochemical; settings: INX-0315 at 100nM
T2 construct: purchased Thermo Fisher Scientific SelectScreen (plus Nanosyn / Reaction Biology for CDK/cyclin lines)
Description: as §1

GSG2 (Haspin) = molecular target: T3, GSG2 (Haspin) (Homo sapiens, UniProt Q8TF76); assay: SelectScreen Adapta; format: biochemical; settings: INX-0315 at 100nM
T3 construct: purchased Thermo Fisher Scientific SelectScreen (plus Nanosyn / Reaction Biology for CDK/cyclin lines)
T3 sequence (Q8TF76 whole entry): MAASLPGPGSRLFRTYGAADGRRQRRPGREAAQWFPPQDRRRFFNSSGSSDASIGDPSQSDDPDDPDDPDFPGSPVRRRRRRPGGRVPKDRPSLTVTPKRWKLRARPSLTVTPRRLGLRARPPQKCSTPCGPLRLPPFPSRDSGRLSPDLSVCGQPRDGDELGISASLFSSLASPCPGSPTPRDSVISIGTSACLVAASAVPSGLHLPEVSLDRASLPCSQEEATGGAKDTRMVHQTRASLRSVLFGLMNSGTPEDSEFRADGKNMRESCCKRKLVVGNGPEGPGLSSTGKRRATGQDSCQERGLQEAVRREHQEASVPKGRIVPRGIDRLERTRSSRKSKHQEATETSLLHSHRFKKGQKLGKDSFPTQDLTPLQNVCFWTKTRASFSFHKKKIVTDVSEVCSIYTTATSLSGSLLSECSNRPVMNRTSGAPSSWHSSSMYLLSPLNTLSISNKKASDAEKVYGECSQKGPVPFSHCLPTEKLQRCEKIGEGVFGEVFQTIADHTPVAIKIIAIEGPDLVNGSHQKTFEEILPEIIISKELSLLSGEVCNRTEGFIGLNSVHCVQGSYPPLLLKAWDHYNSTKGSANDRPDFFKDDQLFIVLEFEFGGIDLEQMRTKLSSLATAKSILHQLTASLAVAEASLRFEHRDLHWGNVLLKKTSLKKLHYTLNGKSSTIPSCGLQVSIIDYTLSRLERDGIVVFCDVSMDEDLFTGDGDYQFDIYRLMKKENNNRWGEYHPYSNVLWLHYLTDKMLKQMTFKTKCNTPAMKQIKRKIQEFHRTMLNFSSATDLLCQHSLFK
Description: as §1

PIP5K1A = molecular target: T4, PIP5K1A (Homo sapiens, UniProt Q99755); assay: SelectScreen Adapta; format: biochemical; settings: INX-0315 at 100nM
T4 construct: purchased Thermo Fisher Scientific SelectScreen (plus Nanosyn / Reaction Biology for CDK/cyclin lines)
Description: as §1

CDK4/cyclin D3 = molecular target: T5, CDK4/cyclin D3 (Homo sapiens, UniProt P11802); assay: SelectScreen Adapta; format: biochemical; settings: INX-0315 at 100nM
T5 construct: purchased Thermo Fisher Scientific SelectScreen (plus Nanosyn / Reaction Biology for CDK/cyclin lines)
Description: as §1

PIK3C2G (PI3K-C2 gamma) = molecular target: T6, PIK3C2G (PI3K-C2 gamma) (Homo sapiens, UniProt O75747); assay: SelectScreen Adapta; format: biochemical; settings: INX-0315 at 100nM
T6 construct: purchased Thermo Fisher Scientific SelectScreen (plus Nanosyn / Reaction Biology for CDK/cyclin lines)
Description: as §1

[1] = molecular target: T7, PIK3CA/PIK3R3 (p110 alpha/p55 gamma) (Homo sapiens, UniProt P42336); assay: SelectScreen Adapta; format: biochemical; settings: INX-0315 at 100nM
T7 construct: purchased Thermo Fisher Scientific SelectScreen (plus Nanosyn / Reaction Biology for CDK/cyclin lines)
Description: as §1

CDK9/cyclin T1 = molecular target: T8, CDK9/cyclin T1 (Homo sapiens, UniProt P50750); assay: SelectScreen Adapta; format: biochemical; settings: INX-0315 at 100nM
T8 construct: purchased Carna 04-110
Description: as §1

DAPK1 = molecular target: T9, DAPK1 (Homo sapiens, UniProt P53355); assay: SelectScreen Adapta; format: biochemical; settings: INX-0315 at 100nM
T9 construct: purchased Thermo Fisher Scientific SelectScreen (plus Nanosyn / Reaction Biology for CDK/cyclin lines)
Description: as §1

[2] = molecular target: T10, PIK3CA E545K/PIK3R1 (p110 alpha E545K/p85 alpha) (Homo sapiens, UniProt P42336, E545K); assay: SelectScreen Adapta; format: biochemical; settings: INX-0315 at 100nM
T10 construct: purchased Thermo Fisher Scientific SelectScreen (plus Nanosyn / Reaction Biology for CDK/cyclin lines)
Description: as §1

CHUK (IKK alpha) = molecular target: T11, CHUK (IKK alpha) (Homo sapiens, UniProt O15111); assay: SelectScreen Adapta; format: biochemical; settings: INX-0315 at 100nM
T11 construct: purchased Thermo Fisher Scientific SelectScreen (plus Nanosyn / Reaction Biology for CDK/cyclin lines)
Description: as §1

[3] = molecular target: T12, PIK3CA E542K/PIK3R1 (p110 alpha E542K/p85 alpha) (Homo sapiens, UniProt P42336, E542K); assay: SelectScreen Adapta; format: biochemical; settings: INX-0315 at 100nM
T12 construct: purchased Thermo Fisher Scientific SelectScreen (plus Nanosyn / Reaction Biology for CDK/cyclin lines)
Description: as §1

CDK6/cyclin D1 = molecular target: T13, CDK6/cyclin D1 (Homo sapiens, UniProt Q00534); assay: SelectScreen Adapta; format: biochemical; settings: INX-0315 at 100nM
T13 construct: purchased Thermo Fisher Scientific SelectScreen (plus Nanosyn / Reaction Biology for CDK/cyclin lines)
T13 sequence (Q00534 whole entry): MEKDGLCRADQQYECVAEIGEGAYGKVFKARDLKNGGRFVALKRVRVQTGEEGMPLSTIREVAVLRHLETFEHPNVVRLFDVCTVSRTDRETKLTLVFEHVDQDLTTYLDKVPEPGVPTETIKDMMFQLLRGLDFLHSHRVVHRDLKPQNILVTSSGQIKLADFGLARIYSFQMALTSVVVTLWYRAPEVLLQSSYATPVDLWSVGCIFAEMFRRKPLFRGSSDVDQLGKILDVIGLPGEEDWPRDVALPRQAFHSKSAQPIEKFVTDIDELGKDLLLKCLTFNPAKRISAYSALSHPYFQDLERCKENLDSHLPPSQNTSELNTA
T13 sequence (P24385 whole entry partner): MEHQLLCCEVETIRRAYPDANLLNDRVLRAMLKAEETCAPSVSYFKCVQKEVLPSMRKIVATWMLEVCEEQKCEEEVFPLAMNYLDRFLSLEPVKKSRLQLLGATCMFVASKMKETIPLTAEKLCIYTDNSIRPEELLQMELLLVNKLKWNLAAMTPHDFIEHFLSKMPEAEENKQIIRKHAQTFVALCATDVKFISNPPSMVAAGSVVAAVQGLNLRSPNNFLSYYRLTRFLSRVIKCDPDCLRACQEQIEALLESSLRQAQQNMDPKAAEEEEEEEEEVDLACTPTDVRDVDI
Description: as §1

PI4K2B (PI4K2 beta) = molecular target: T14, PI4K2B (PI4K2 beta) (Homo sapiens, UniProt Q8TCG2); assay: SelectScreen Adapta; format: biochemical; settings: INX-0315 at 100nM
T14 construct: purchased Thermo Fisher Scientific SelectScreen (plus Nanosyn / Reaction Biology for CDK/cyclin lines)
Description: as §1

CAMK1 (CaMK1) = molecular target: T15, CAMK1 (CaMK1) (Homo sapiens, UniProt Q14012); assay: SelectScreen Adapta; format: biochemical; settings: INX-0315 at 100nM
T15 construct: purchased Thermo Fisher Scientific SelectScreen (plus Nanosyn / Reaction Biology for CDK/cyclin lines)
T15 sequence (Q14012 whole entry): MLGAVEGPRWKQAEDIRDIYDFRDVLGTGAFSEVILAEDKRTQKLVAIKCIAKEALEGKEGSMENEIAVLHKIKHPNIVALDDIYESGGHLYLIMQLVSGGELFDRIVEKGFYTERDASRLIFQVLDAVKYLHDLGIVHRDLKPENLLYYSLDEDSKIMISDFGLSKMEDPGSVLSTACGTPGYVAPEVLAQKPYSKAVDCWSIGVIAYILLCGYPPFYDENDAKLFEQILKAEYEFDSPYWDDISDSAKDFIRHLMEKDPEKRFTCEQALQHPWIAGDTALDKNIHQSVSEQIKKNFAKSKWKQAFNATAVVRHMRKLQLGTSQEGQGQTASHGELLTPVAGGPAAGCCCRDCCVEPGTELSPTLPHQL
Description: as §1

PIP4K2A = molecular target: T16, PIP4K2A (Homo sapiens, UniProt P48426); assay: SelectScreen Adapta; format: biochemical; settings: INX-0315 at 100nM
T16 construct: purchased Thermo Fisher Scientific SelectScreen (plus Nanosyn / Reaction Biology for CDK/cyclin lines)
Description: as §1

[4] = molecular target: T17, PIK3CB/PIK3R1 (p110 beta/p85 alpha) (Homo sapiens, UniProt P42338); assay: SelectScreen Adapta; format: biochemical; settings: INX-0315 at 100nM
T17 construct: purchased Thermo Fisher Scientific SelectScreen (plus Nanosyn / Reaction Biology for CDK/cyclin lines)
T17 sequence (P42338 whole entry): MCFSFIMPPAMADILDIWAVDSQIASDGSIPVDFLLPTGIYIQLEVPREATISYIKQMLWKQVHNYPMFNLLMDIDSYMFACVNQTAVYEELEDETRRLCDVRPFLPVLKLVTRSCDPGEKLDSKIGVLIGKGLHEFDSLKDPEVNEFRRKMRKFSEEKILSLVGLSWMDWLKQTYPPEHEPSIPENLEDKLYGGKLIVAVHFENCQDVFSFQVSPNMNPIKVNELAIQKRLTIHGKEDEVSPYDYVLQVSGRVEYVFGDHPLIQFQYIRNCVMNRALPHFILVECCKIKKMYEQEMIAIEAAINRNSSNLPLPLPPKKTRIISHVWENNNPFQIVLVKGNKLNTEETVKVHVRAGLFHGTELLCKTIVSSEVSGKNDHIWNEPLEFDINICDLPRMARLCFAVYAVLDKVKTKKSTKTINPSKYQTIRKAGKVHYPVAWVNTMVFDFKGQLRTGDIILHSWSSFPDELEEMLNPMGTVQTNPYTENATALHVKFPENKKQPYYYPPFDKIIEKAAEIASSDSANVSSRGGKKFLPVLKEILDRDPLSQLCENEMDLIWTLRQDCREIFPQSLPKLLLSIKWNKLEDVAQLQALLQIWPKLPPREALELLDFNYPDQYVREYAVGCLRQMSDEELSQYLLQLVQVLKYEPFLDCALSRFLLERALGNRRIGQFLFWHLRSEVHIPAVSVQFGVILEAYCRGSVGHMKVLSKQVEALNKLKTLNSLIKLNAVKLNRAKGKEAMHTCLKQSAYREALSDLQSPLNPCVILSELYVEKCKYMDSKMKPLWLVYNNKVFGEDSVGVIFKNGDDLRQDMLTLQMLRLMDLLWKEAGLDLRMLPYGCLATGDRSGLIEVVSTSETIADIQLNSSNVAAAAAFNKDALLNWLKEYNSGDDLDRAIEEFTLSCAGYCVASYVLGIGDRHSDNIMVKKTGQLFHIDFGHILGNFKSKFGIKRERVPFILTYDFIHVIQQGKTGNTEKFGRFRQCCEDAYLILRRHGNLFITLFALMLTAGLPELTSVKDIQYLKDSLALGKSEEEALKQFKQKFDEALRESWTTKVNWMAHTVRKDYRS
T17 sequence (P27986 whole entry partner): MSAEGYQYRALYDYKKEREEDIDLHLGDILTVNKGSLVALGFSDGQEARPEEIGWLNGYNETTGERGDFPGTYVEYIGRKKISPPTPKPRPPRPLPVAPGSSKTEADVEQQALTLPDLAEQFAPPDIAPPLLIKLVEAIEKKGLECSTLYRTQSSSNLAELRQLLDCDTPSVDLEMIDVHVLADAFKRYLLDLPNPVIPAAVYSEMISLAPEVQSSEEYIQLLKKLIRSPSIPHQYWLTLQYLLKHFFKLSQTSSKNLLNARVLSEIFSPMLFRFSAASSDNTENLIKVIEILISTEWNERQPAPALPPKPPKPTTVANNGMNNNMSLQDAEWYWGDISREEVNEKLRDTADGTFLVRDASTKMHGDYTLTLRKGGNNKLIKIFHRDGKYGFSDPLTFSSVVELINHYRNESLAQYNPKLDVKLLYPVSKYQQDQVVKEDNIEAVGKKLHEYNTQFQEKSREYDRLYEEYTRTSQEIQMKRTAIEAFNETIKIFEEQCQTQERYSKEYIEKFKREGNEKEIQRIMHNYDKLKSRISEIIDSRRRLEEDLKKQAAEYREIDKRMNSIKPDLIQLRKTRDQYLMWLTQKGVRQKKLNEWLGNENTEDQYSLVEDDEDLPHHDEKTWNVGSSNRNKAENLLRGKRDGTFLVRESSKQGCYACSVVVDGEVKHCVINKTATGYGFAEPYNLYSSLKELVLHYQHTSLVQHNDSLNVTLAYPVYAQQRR
Description: as §1

NUAK1 (ARK5) = molecular target: T18, NUAK1 (ARK5) (Homo sapiens, UniProt O60285); assay: SelectScreen Adapta; format: biochemical; settings: INX-0315 at 100nM
T18 construct: purchased Thermo Fisher Scientific SelectScreen (plus Nanosyn / Reaction Biology for CDK/cyclin lines)
Description: as §1

PI4K2A (PI4K2 alpha) = molecular target: T19, PI4K2A (PI4K2 alpha) (Homo sapiens, UniProt Q9BTU6); assay: SelectScreen Adapta; format: biochemical; settings: INX-0315 at 100nM
T19 construct: purchased Thermo Fisher Scientific SelectScreen (plus Nanosyn / Reaction Biology for CDK/cyclin lines)
Description: as §1

IRAK1 = molecular target: T20, IRAK1 (Homo sapiens, UniProt P51617); assay: SelectScreen Adapta; format: biochemical; settings: INX-0315 at 100nM
T20 construct: purchased Thermo Fisher Scientific SelectScreen (plus Nanosyn / Reaction Biology for CDK/cyclin lines)
Description: as §1

PI4KB (PI4K beta) = molecular target: T21, PI4KB (PI4K beta) (Homo sapiens, UniProt Q9UBF8); assay: SelectScreen Adapta; format: biochemical; settings: INX-0315 at 100nM
T21 construct: purchased Thermo Fisher Scientific SelectScreen (plus Nanosyn / Reaction Biology for CDK/cyclin lines)
Description: as §1

PIP5K1C = molecular target: T22, PIP5K1C (Homo sapiens, UniProt O60331); assay: SelectScreen Adapta; format: biochemical; settings: INX-0315 at 100nM
T22 construct: purchased Thermo Fisher Scientific SelectScreen (plus Nanosyn / Reaction Biology for CDK/cyclin lines)
T22 sequence (O60331 whole entry): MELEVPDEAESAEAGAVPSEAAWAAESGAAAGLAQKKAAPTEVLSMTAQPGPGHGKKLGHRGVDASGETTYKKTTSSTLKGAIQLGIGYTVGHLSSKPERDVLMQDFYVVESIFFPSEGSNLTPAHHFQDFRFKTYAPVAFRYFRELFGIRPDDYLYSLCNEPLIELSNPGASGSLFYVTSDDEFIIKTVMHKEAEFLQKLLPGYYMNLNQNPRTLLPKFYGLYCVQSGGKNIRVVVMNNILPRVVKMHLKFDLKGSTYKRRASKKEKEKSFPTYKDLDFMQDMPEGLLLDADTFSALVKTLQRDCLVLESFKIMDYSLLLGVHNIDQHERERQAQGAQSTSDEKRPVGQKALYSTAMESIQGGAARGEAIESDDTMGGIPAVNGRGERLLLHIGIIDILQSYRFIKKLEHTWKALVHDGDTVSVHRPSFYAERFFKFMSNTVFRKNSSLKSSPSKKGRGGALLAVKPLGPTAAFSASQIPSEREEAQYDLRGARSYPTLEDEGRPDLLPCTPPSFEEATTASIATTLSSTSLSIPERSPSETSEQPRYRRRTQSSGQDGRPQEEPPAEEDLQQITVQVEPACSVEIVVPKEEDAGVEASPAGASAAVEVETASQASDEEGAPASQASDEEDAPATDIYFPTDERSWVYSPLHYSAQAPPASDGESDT
Description: as §1

LRRK2 G2019S = molecular target: T23, LRRK2 G2019S (Homo sapiens, UniProt Q5S007, G2019S); assay: SelectScreen Adapta; format: biochemical; settings: INX-0315 at 100nM
T23 construct: purchased Thermo Fisher Scientific SelectScreen (plus Nanosyn / Reaction Biology for CDK/cyclin lines)
Description: as §1

[5] = molecular target: T24, PIK3CD/PIK3R1 (p110 delta/p85 alpha) (Homo sapiens, UniProt O00329); assay: SelectScreen Adapta; format: biochemical; settings: INX-0315 at 100nM
T24 construct: purchased Thermo Fisher Scientific SelectScreen (plus Nanosyn / Reaction Biology for CDK/cyclin lines)
Description: as §1

LRRK2 = molecular target: T25, LRRK2 (Homo sapiens, UniProt Q5S007); assay: SelectScreen Adapta; format: biochemical; settings: INX-0315 at 100nM
T25 construct: purchased Thermo Fisher Scientific SelectScreen (plus Nanosyn / Reaction Biology for CDK/cyclin lines)
Description: as §1

PIK3C2B (PI3K-C2 beta) = molecular target: T26, PIK3C2B (PI3K-C2 beta) (Homo sapiens, UniProt O00750); assay: SelectScreen Adapta; format: biochemical; settings: INX-0315 at 100nM
T26 construct: purchased Thermo Fisher Scientific SelectScreen (plus Nanosyn / Reaction Biology for CDK/cyclin lines)
Description: as §1

[6] = molecular target: T27, PIK3CB/PIK3R2 (p110 beta/p85 beta) (Homo sapiens, UniProt P42338); assay: SelectScreen Adapta; format: biochemical; settings: INX-0315 at 100nM
T27 construct: purchased Thermo Fisher Scientific SelectScreen (plus Nanosyn / Reaction Biology for CDK/cyclin lines)
T27 sequence (P42338 whole entry): as the sequence (P42338 whole entry) above
T27 sequence (O00459 whole entry partner): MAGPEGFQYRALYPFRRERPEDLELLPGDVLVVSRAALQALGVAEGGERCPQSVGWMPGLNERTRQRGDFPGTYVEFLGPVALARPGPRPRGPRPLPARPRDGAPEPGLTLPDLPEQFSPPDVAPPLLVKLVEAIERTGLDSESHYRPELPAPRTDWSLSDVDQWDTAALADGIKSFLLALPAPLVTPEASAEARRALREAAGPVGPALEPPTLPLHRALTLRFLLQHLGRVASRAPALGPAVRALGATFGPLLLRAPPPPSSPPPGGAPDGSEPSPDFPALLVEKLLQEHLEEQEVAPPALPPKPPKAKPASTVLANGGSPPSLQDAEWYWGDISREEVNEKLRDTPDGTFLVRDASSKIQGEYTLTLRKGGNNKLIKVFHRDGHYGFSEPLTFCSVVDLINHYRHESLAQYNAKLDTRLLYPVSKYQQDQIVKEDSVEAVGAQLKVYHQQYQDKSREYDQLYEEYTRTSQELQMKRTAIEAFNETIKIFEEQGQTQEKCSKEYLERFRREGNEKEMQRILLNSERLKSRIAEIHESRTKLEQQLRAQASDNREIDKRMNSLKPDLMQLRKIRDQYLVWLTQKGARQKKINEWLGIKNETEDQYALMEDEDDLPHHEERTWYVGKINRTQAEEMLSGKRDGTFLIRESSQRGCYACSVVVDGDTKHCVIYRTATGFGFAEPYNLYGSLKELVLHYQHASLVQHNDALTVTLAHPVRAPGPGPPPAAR
Description: as §1

LRRK2 FL = molecular target: T28, LRRK2 FL (Homo sapiens, UniProt Q5S007); assay: SelectScreen Adapta; format: biochemical; settings: INX-0315 at 100nM
T28 construct: purchased Thermo Fisher Scientific SelectScreen (plus Nanosyn / Reaction Biology for CDK/cyclin lines)
Description: as §1

LRRK2 G2019S FL = molecular target: T29, LRRK2 G2019S FL (Homo sapiens, UniProt Q5S007, G2019S); assay: SelectScreen Adapta; format: biochemical; settings: INX-0315 at 100nM
T29 construct: purchased Thermo Fisher Scientific SelectScreen (plus Nanosyn / Reaction Biology for CDK/cyclin lines)
Description: as §1

PI4KA (PI4K alpha) = molecular target: T30, PI4KA (PI4K alpha) (Homo sapiens, UniProt P42356); assay: SelectScreen Adapta; format: biochemical; settings: INX-0315 at 100nM
T30 construct: purchased Thermo Fisher Scientific SelectScreen (plus Nanosyn / Reaction Biology for CDK/cyclin lines)
Description: as §1

[7] = molecular target: T31, PIK3CA/PIK3R1 (p110 alpha/p85 alpha) (Homo sapiens, UniProt P42336); assay: SelectScreen Adapta; format: biochemical; settings: INX-0315 at 100nM
T31 construct: purchased Thermo Fisher Scientific SelectScreen (plus Nanosyn / Reaction Biology for CDK/cyclin lines)
Description: as §1

LRRK2 I2020T = molecular target: T32, LRRK2 I2020T (Homo sapiens, UniProt Q5S007, I2020T); assay: SelectScreen Adapta; format: biochemical; settings: INX-0315 at 100nM
T32 construct: purchased Thermo Fisher Scientific SelectScreen (plus Nanosyn / Reaction Biology for CDK/cyclin lines)
Description: as §1

SPHK1 = molecular target: T33, SPHK1 (Homo sapiens, UniProt Q9NYA1); assay: SelectScreen Adapta; format: biochemical; settings: INX-0315 at 100nM
T33 construct: purchased Thermo Fisher Scientific SelectScreen (plus Nanosyn / Reaction Biology for CDK/cyclin lines)
Description: as §1

PIK3C2A (PI3K-C2 alpha) = molecular target: T34, PIK3C2A (PI3K-C2 alpha) (Homo sapiens, UniProt O00443); assay: SelectScreen Adapta; format: biochemical; settings: INX-0315 at 100nM
T34 construct: purchased Thermo Fisher Scientific SelectScreen (plus Nanosyn / Reaction Biology for CDK/cyclin lines)
Description: as §1

MKN1 cells = assay: Cell cycle flow cytometry; format: cell-based; settings: 24 hours, 100 nmol/L

Structure (SMILES): NS(=O)(=O)c1ccc(Nc2ncc3cc4n(c3n2)C2(CCCCC2)C(=O)NN4)cc1 [INX-315]
- inhibition at 0.1 µM (PIK3CG (p110 gamma)): -8%
- inhibition at 0.1 µM (PIK3C3 (hVPS34)): 7%
- inhibition at 0.1 µM (GSG2 (Haspin)): 4%
- inhibition at 0.1 µM (PIP5K1A): 6%
- inhibition at 0.1 µM (CDK4/cyclin D3): 22%
- inhibition at 0.1 µM (PIK3C2G (PI3K-C2 gamma)): 6%
- inhibition at 0.1 µM [1]: -2%
- inhibition at 0.1 µM (CDK9/cyclin T1): 52%
- inhibition at 0.1 µM (DAPK1): -8%
- inhibition at 0.1 µM [2]: 0%
- inhibition at 0.1 µM (CHUK (IKK alpha)): -7%
- inhibition at 0.1 µM [3]: -1%
- inhibition at 0.1 µM (CDK6/cyclin D1): 15%
- inhibition at 0.1 µM (PI4K2B (PI4K2 beta)): -2%
- inhibition at 0.1 µM (CAMK1 (CaMK1)): -17%
- inhibition at 0.1 µM (PIP4K2A): 7%
- inhibition at 0.1 µM [4]: -17%
- inhibition at 0.1 µM (NUAK1 (ARK5)): 68%
- inhibition at 0.1 µM (PI4K2A (PI4K2 alpha)): 0%
- inhibition at 0.1 µM (IRAK1): 6%
- inhibition at 0.1 µM (PI4KB (PI4K beta)): 2%
- inhibition at 0.1 µM (PIP5K1C): 4%
- inhibition at 0.1 µM (LRRK2 G2019S): 34%
- inhibition at 0.1 µM [5]: -10%
- inhibition at 0.1 µM (LRRK2): 29%
- inhibition at 0.1 µM (PIK3C2B (PI3K-C2 beta)): -14%
- inhibition at 0.1 µM [6]: -14%
- inhibition at 0.1 µM (LRRK2 FL): 37%
- inhibition at 0.1 µM (LRRK2 G2019S FL): 40%
- inhibition at 0.1 µM (PI4KA (PI4K alpha)): -11%
- inhibition at 0.1 µM [7]: 11%
- inhibition at 0.1 µM (LRRK2 I2020T): 28%
- inhibition at 0.1 µM (SPHK1): -15%
- inhibition at 0.1 µM (PIK3C2A (PI3K-C2 alpha)): -1%
- cell cycle effect (MKN1 cells): strong G1 arrest
